Reference: article PMC11194091 (2024)

Assays:
[1] = system: G2C4 RNA (RNA, triplex) GGCCCC; test: DSC; conditions: 100 mM NaCl; 10 mM sodium cacodylate pH 6.0; 300 μM ANP77, 300 μM RNA; triplex melting 38.1 to 41.5; derived from two Tm
[2] = system: G2C4 RNA (RNA, triplex) GGCCCC; test: ITC; conditions: 100 mM NaCl; 10 mM sodium cacodylate pH 6.0, 25°C; one set of sites model
[3] = system: (G2C4)2 (RNA, repeat) GGCCCCGGCCCC; test: ITC; conditions: 100 mM NaCl; 10 mM sodium cacodylate pH 6.0, 25°C; sequential binding sites model; site 1 of 2
[4] = system: (G2C4)2 (RNA, repeat) GGCCCCGGCCCC; test: circular dichroism; conditions: 100 mM NaCl; 10 mM sodium cacodylate pH 7.0, room temperature; 2.5 μM RNA, 25 μM ANP77
[5] = system: RNA oligomer having five G2C4 repeats (RNA, repeat) GGCCCCGGCCCCGGCCCCGGCCCCGGCCCC; test: circular dichroism; conditions: 100 mM NaCl; 10 mM sodium cacodylate pH 7.0, room temperature; 2.5 μM RNA, 25 μM ANP77
[6] = system: G2C4 RNA (RNA, triplex) GGCCCC; test: X-ray crystal structure; conditions: 80 mM NaCl; 40 mM sodium cacodylate pH 6.0, 45% MPD, 12 mM spermine, 19°C; 1.1 Å
[7] = system: G2C4 RNA (RNA, triplex) GGCCCC; test: CSI-TOF mass spectrometry; conditions: 250 mM ammonium acetate; water/methanol 8:2, -10°C spray; 20 μM RNA, 50 μM ANP77; complexes with double-stranded form

ΔTm1 (shift in Tm1) [1]: 3.4 °C | Kd [2]: 7.9 ± 1.0 µM | Kd [3]: 976 ± 377 nM | binding [4]: yes | binding [5]: yes | binding [6]: yes | binding [7]: yes
Structure (SMILES): NCCCNC(=O)C(Cc1ccc2ccc(N)nc2n1)Cc1ccc2ccc(N)nc2n1
